The record followed here is patent US7067476B2, “Peptide derivative, and pharmaceutically acceptable salt thereof, process for producing the same, and use thereof” (priority 2001, dated 2006).

The target in one assay is Lys-gingipain (KGP) (Porphyromonas gingivalis, UniProt B2RLK2). The assay can be described thus: Inhibitory activity against Lys-gingipain (KGP), substrate Cbz-His-Glu-Lys-MCA. Type of assay: biochemical. The settings on record: read-out: Enzyme inhibitory activity (%) KGP. As to the method: (§1) The inhibitory activity against Lys-gingipain (KGP) was measured by the method of Abe et al. (Journal Biochemistry, 1998, Vol. 123, 305–312) using Cbz-His-Glu-Lys-MCA as a substrate. The inhibitory activity against Arg-gingipain (RGP) was measured by the method of Kadowaki et al. (Journal Biological Chemistry, 1994, Vol. 269, 21371–21378) using Cbz-Phe-Arg-MCA as a substrate. More specifically, the measurements were carried out in the following manner: 100 μl of 50 mM L-cystein, 200 μl of a 0.1 M sodium phosphate buffer solution (pH 7.5), 20 μl of 12.3 nM KGP or RGP solution containing 0.05% “Brij35” (a tradename, product of Aldrich, polyoxyethylene(23) lauryl ether), 80 μl of distilled water and 100 μl of a dimethyl sulfoxide solution of a compound according to the invention were mixed and preincubated at 37° C. for 5 minutes. Thereafter, 500 μl of a 0.1% dimethyl sulfoxide solution containing 20 μM Cbz-His-Glu-Lys-MCA (for KGP) or Cbz-Phe-Arg-MCA (for RGP) was added, followed by incubation at 40° C. for 10 minutes. An acetic acid buffer solution (pH 5.0) containing 10 mM iodoacetamide was then added to stop the enzyme reaction. The fluorescence intensity (F) at 460 nm upon excitation at 380 nm was measured.

The next assay has as its system Arg-gingipain (RGP). Briefly: Inhibitory activity against Arg-gingipain (RGP), substrate Cbz-Phe-Arg-MCA. Type of assay: biochemical, Porphyromonas gingivalis. The procedure: as §1

In the case of `Cl.NCCCC[C@H](NC(=O)[C@H](CCC(=O)O)NC(=O)OCc1ccccc1)C(=O)C(=O)N[C@@H](CCCNC(N)=N[N+](=O)[O-])C(=O)C(=O)NCCc1ccccc1` [Example 3], at Lys-gingipain (KGP), the inhibition at 1 µM came to 99.9%, the inhibition at 10 µM came to 99.9% and the inhibition at 100 µM was 100%. The “Enzyme inhibitory activity (%) RGP” value in the assay with Arg-gingipain (RGP) (concentration 10^−4 mol/l) is 99.4%. Besides, the “Enzyme inhibitory activity (%) RGP” value in the assay on Arg-gingipain (RGP) (concentration 10^−5 mol/l) is on record as 96.8%. The “Enzyme inhibitory activity (%) RGP” value with Arg-gingipain (RGP) (concentration 10^−6 mol/l) was determined as 81.1%.
